According to US20250090437A1, “COSMETIC COMPOUNDING AGENT, COSMETIC AND PRODUCTION METHOD THEREOF” (MIYOSHI OIL & FAT CO., LTD., priority 2019, published 2025):

Columns and labels:
[1] = Water retention property test 3 (long term); type: physicochemical; conditions: for Amount of moisture reduction in 0 to 24 h / Amount of moisture reduction in 24 to 96 h / Amount of moisture reduction per hour / Pre-test moisture rate / Moisture rate after 24 h / Moisture rate after 96 h / Amount of moisture reduction in 96 to 120 h / Moisture rate after 120 h: 80 wt % aqueous solution; for Amount of moisture reduction in 0 to 24 h / Amount of moisture reduction in 24 to 96 h / Amount of moisture reduction in 96 to 120 h: 1.0 g; for Amount of moisture reduction in 0 to 24 h / Amount of moisture reduction in 24 to 96 h / Amount of moisture reduction per hour / Moisture rate after 24 h / Moisture rate after 96 h / Amount of moisture reduction in 96 to 120 h / Moisture rate after 120 h: 40° C. and 25% RH; for Pre-test moisture rate: before the test; for Moisture rate after 24 h / Moisture rate after 96 h / Moisture rate after 120 h: unsealed
Experimental: In a water retention property test 3, an 80 wt % aqueous solution of each of the compounds C8, C11, C62, C63 and C64 was prepared, followed by using a Karl Fischer moisture meter to confirm that a moisture rate was 20.0 wt %. Next, 1.0 g of each of these samples was added to a screw tube, and this screw tube, while remaining unsealed, was then left to stand still in a thermo-hygrostat set to 40° C. and 25% RH. […] In addition, the water retention property was evaluated by calculating an amount of moisture reduction per hour (mg/h) based on each amount of moisture reduction (mg).

[2] = Water retention property and adherability with respect to healthy hair; set-up: species or system human; conditions: for Compound adhesion rate / Post-test moisture rate: healthy hair immersed 60 min in 80 wt % aqueous solution; for Post-test moisture rate: after 24 hours at 40° C., pre-test 7.6%; for Post-test moisture rate / Rate of reduction in moisture: 35 to 40% RH; for Rate of reduction in moisture: healthy hair, 80 wt % aqueous solution, 24 hours at 40° C.
Experimental: In the following evaluations, a human black hair produced by Beaulax Co., Ltd was used as a healthy hair. A damaged hair was prepared by repeatedly having the healthy hair permed and bleached three times.
An 80 wt % aqueous solution of each of the compounds B1 to B26 (content in terms of anhydride in the cases of the compounds B1 to B23) was prepared, followed by using a Karl Fischer moisture meter (KF-200 by Mitsubishi Chemical Analytech Co., Ltd.) to confirm that a moisture rate was 20.0 wt %. As a healthy hair, there was used a chemically untreated healthy hair (human black hair by Beaulax Co., Ltd). The moisture rate (pre-test moisture rate A) of the hair was measured by an infrared moisture meter (by Kett Electric Laboratory).
After immersion, the hair was taken out, and KimWipes were then used to wipe off the compound until a change in weight was no longer observed, followed by measuring the weight of the hair (post-test hair weight B). The hair from which the compound had been wiped off was then placed into a thermo-hygrostat set to 40° C. and 35 to 40% RH. A moisture rate after 24 hours (post-test moisture rate B) was then measured, followed by calculating a rate of reduction in moisture with the following formula. Likewise, instead of the 80 wt % aqueous solution, evaluation was also performed in a similar manner using only an ion-exchange water (comparative example B4).
Further, an adhesion rate of the compound adhering to the hair was calculated with the following formula. […]

[3] = Water retention property test 1; type: physicochemical; conditions: 80 wt % aqueous solution; for Water retention property test 1 Post-test moisture rate / Water retention property test 1 Rate of reduction in moisture / Post-test moisture rate / Rate of reduction in moisture: 24 hours at 40° C. and 25% RH; for Pre-test moisture rate: before the test (Karl Fischer); for Post-test moisture rate / Rate of reduction in moisture: unsealed
Experimental: A moisture rate after 24 hours was again measured (post-test moisture rate: B), followed by using the formula below to calculate a rate of reduction in moisture so as to evaluate the water retention property. • Pre-test moisture rate: A (%) • Post-test moisture rate: B (%)

[4] = Water confinement property test (barrier property); type: physicochemical; conditions: 80 wt % aqueous solution, 0.01 mL/cm^2 on filter paper, 40° C. and 25% RH, 24 hours
Experimental: Next, 20.0 g of an ion-exchange water was put into a 40 mL pierce vial bottle (by AS ONE Corporation.), followed by removing an inner lid (rubber plug) of the pierce vial bottle, placing on the pierce vial bottle the filter paper to which each sample had been applied, and then plugging the bottle with an outer lid.
Further, Wm1, Wm2, Sm1 and Sm2 in the formula below respectively represent the following numerical values.
Wm1: Weight of ion-exchange water in vial before storage (using filter paper to which only ion-exchange water had been applied)
Wm2: Weight of ion-exchange water in vial after 24 hours (using filter paper to which only ion-exchange water had been applied)
Sm1: Weight of ion-exchange water in vial before storage (using filter paper to which sample had been applied)
Sm2: Weight of ion-exchange water in vial after 24 hours (using filter paper to which sample had been applied)

Structure (SMILES): CCCC[N+](CCCC)(CCCC)CCCC.[Br-] [Comparative example C13]
- Amount of moisture reduction in 0 to 24 h ([1]; 0~24 h): 49.1 mg
- Amount of moisture reduction in 24 to 96 h ([1]; 24~96 h): 145.8 mg
- Amount of moisture reduction per hour ([1]; 0~24 h): 2.0 mg/h
- Amount of moisture reduction per hour ([1]; 24~96 h): 2.0 mg/h
- Pre-test moisture rate [1]: 20.0%
- Moisture rate after 24 h [1]: 15.9%
- Moisture rate after 96 h [1]: 0.7%

Structure (SMILES): CCCCn1cc[n+](C)c1.F[B-](F)(F)F [Comparative example C14]
- Amount of moisture reduction in 0 to 24 h ([1]; 0~24 h): 64.3 mg
- Amount of moisture reduction in 24 to 96 h ([1]; 24~96 h): 134.4 mg
- Amount of moisture reduction per hour ([1]; 0~24 h): 2.7 mg/h
- Pre-test moisture rate [1]: 20.0%
- Moisture rate after 24 h [1]: 14.5%
- Moisture rate after 96 h [1]: 0.0%

Structure (SMILES): OCC(O)CO [Comparative example C15]
- Amount of moisture reduction in 0 to 24 h ([1]; 0~24 h): 24.6 mg
- Amount of moisture reduction in 24 to 96 h ([1]; 24~96 h): 74.8 mg
- Amount of moisture reduction in 96 to 120 h ([1]; 96~120 h): 25.0 mg
- Amount of moisture reduction per hour ([1]; 0~24 h): 1.0 mg/h
- Amount of moisture reduction per hour ([1]; 24~96 h): 1.0 mg/h
- Amount of moisture reduction per hour ([1]; 96~120 h): 1.0 mg/h
- Pre-test moisture rate [1]: 20.0%
- Moisture rate after 24 h [1]: 18.0%
- Moisture rate after 96 h [1]: 11.1%
- Moisture rate after 120 h [1]: 8.6%

Structure (SMILES): O [Compound B8]
- Compound adhesion rate [2]: 1.3%
- Post-test moisture rate [2]: 6.1%
- Rate of reduction in moisture [2]: 20%

Structure (SMILES): NC(CO)(CO)CO.O=C(O)CC(O)(CC(=O)O)C(=O)O [Compound B13]
- Compound adhesion rate [2]: 2.3%
- Post-test moisture rate [2]: 6.5%
- Rate of reduction in moisture [2]: 15%

Structure (SMILES): NC(CO)(CO)CO.O=C(O)CO [Compound B14]
- Compound adhesion rate [2]: 1.3%
- Post-test moisture rate [2]: 7.4%
- Rate of reduction in moisture [2]: 3%

Structure (SMILES): CC(=O)CCC(=O)O.NC(CO)(CO)CO [Compound B17]
- Compound adhesion rate [2]: 6.9%
- Post-test moisture rate [2]: 6.5%
- Rate of reduction in moisture [2]: 15%

Structure (SMILES): NC(CO)(CO)CO.O=C1OC(C(O)CO)C(O)=C1O (centres unmarked) [Compound B20]
- Compound adhesion rate [2]: 2.1%
- Post-test moisture rate [2]: 6.6%
- Rate of reduction in moisture [2]: 14%

Structure (SMILES): O [Compound B21]
- Compound adhesion rate [2]: 1.1%
- Post-test moisture rate [2]: 5.8%
- Rate of reduction in moisture [2]: 24%

Structure (SMILES): CCCCn1cc[n+](C)c1.[Cl-] [Compound B25, 1-butyl-3-methylimidazolium chloride, reference compound]
- Compound adhesion rate [2]: 1.0%
- Post-test moisture rate [2]: 4.0%
- Rate of reduction in moisture [2]: 47%

Structure (SMILES): CC(C)(C)CO [Compound C43]
- Water retention property test 1 Pre-test moisture rate [3]: 20.0%
- Water retention property test 1 Post-test moisture rate [3]: 19.3%
- Water retention property test 1 Rate of reduction in moisture [3]: 4.4%
- Water evaporation inhibition rate [4]: 39.7%

Structure (SMILES): CC(C)(CO)CO [Compound C47]
- Water retention property test 1 Pre-test moisture rate [3]: 20.0%
- Water retention property test 1 Post-test moisture rate [3]: 19.2%
- Water retention property test 1 Rate of reduction in moisture [3]: 4.7%
- Water evaporation inhibition rate [4]: 34.8%

Structure (SMILES): CC(CO)(CO)CO [Compound C50]
- Pre-test moisture rate [3]: 20.0%
- Post-test moisture rate [3]: 19.1%
- Rate of reduction in moisture [3]: 4.4%
- Water evaporation inhibition rate [4]: 39.1%

Structure (SMILES): CC(CO)(CO)CO [Compound C51]
- Pre-test moisture rate [3]: 20.0%
- Post-test moisture rate [3]: 19.1%
- Rate of reduction in moisture [3]: 4.5%
- Water evaporation inhibition rate [4]: 35.6%

Structure (SMILES): CC(CO)(CO)CO [Compound C52]
- Pre-test moisture rate [3]: 20.0%
- Post-test moisture rate [3]: 18.6%
- Rate of reduction in moisture [3]: 7.1%
- Water evaporation inhibition rate [4]: 36.8%

Structure (SMILES): CC(CO)(CO)CO [Compound C53]
- Pre-test moisture rate [3]: 20.0%
- Post-test moisture rate [3]: 19.1%
- Rate of reduction in moisture [3]: 4.4%
- Water evaporation inhibition rate [4]: 34.6%

Structure (SMILES): CC(CO)(CO)CO [Compound C54]
- Pre-test moisture rate [3]: 20.0%
- Post-test moisture rate [3]: 18.8%
- Rate of reduction in moisture [3]: 5.8%
- Water evaporation inhibition rate [4]: 30.3%

Structure (SMILES): CC(CO)(CO)CO [Compound C55]
- Pre-test moisture rate [3]: 20.0%
- Post-test moisture rate [3]: 18.4%
- Rate of reduction in moisture [3]: 7.9%
- Water evaporation inhibition rate [4]: 34.1%

Structure (SMILES): C[N+](C)(C)CCO.O=C1OC(C(O)CO)C([O-])=C1O (centres unmarked) [Compound C57]
- Pre-test moisture rate [3]: 20.0%
- Post-test moisture rate [3]: 19.0%
- Rate of reduction in moisture [3]: 5.0%

Structure (SMILES): C[N+](C)(C)CC(O)CC(=O)O.O=C1O[C@H]([C@@H](O)CO)C([O-])=C1O [Compound C58]
- Pre-test moisture rate [3]: 20.0%
- Post-test moisture rate [3]: 19.2%
- Rate of reduction in moisture [3]: 4.1%

Structure (SMILES): CC(=O)OCC[N+](C)(C)C.O=C1O[C@H]([C@@H](O)CO)C([O-])=C1O [Compound C59]
- Pre-test moisture rate [3]: 20.0%
- Post-test moisture rate [3]: 19.3%
- Rate of reduction in moisture [3]: 3.5%

Structure (SMILES): CC(O)C(=O)O.NCCCC(=O)O [Compound C60]
- Pre-test moisture rate [3]: 20.0%
- Post-test moisture rate [3]: 18.1%
- Rate of reduction in moisture [3]: 9.9%

Structure (SMILES): CC(O)C(=O)O.NCCCCCC(=O)O [Compound C61]
- Pre-test moisture rate [3]: 20.0%
- Post-test moisture rate [3]: 18.1%
- Rate of reduction in moisture [3]: 9.9%

Structure (SMILES): CCCCn1cc[n+](C)c1.F[B-](F)(F)F [Compound C63, 1-butyl-3-methylimidazolium tetrafluoroborate, reference compound]
- Pre-test moisture rate [3]: 20.0%
- Post-test moisture rate [3]: 11.7%
- Rate of reduction in moisture [3]: 41.7%
- Water evaporation inhibition rate [4]: 25.7%

Structure (SMILES): CC(C)(CO)CO [Compound C65]
- Water evaporation inhibition rate [4]: 39.4%

Structure (SMILES): CC(N)(CO)CO.NCCCCCC(=O)O [Compound C76]
- Water evaporation inhibition rate [4]: 35.7%

Structure (SMILES): CC(CO)(CO)CO [Compound C77]
- Water evaporation inhibition rate [4]: 35.4%

Structure (SMILES): NC(CO)(CO)CO.O=C(O)CC(O)(CC(=O)O)C(=O)O [Compound C82]
- Water evaporation inhibition rate [4]: 35.8%

Structure (SMILES): CS(=O)(=O)O.NC(CO)(CO)CO [Compound C83]
- Water evaporation inhibition rate [4]: 31.3%

Structure (SMILES): CC(O)C(=O)O.NC(CO)CO (centres unmarked) [Working example C117]
- Amount of moisture reduction in 0 to 24 h ([1]; 0~24 h): 6.7 mg
- Amount of moisture reduction in 24 to 96 h ([1]; 24~96 h): 20.1 mg
- Amount of moisture reduction in 96 to 120 h ([1]; 96~120 h): 4.0 mg
- Amount of moisture reduction per hour ([1]; 0~24 h): 0.3 mg/h
- Amount of moisture reduction per hour ([1]; 24~96 h): 0.3 mg/h
- Amount of moisture reduction per hour ([1]; 96~120 h): 0.2 mg/h
- Pre-test moisture rate [1]: 20.0%
- Moisture rate after 24 h [1]: 19.5%
- Moisture rate after 96 h [1]: 17.8%
- Moisture rate after 120 h [1]: 15.8%
- Moisture rate of hydrate [1]: 16.6%

Structure (SMILES): CS(=O)(=O)O.NC(CO)CO [Working example C118]
- Amount of moisture reduction in 0 to 24 h ([1]; 0~24 h): 6.5 mg
- Amount of moisture reduction in 24 to 96 h ([1]; 24~96 h): 20.0 mg
- Amount of moisture reduction in 96 to 120 h ([1]; 96~120 h): 4.1 mg
- Amount of moisture reduction per hour ([1]; 0~24 h): 0.3 mg/h
- Amount of moisture reduction per hour ([1]; 24~96 h): 0.3 mg/h
- Amount of moisture reduction per hour ([1]; 96~120 h): 0.2 mg/h
- Pre-test moisture rate [1]: 20.0%
- Moisture rate after 24 h [1]: 19.4%
- Moisture rate after 96 h [1]: 17.6%
- Moisture rate after 120 h [1]: 15.4%
- Moisture rate of hydrate [1]: 16.1%
